Laboratory results reported in paper PMC8586704 (Frontiers in Chemistry, 2021).
≈ marks a conversion by molar mass, not a printed value. Where two headings read alike, the source gives them in different places. Starred links: 1 amine or outer side, 2 acyl side, 3 side chain; linkers in the order of their positions; H or OH if unused. Non-standard residues stand in square brackets, D forms with d. Residues, ends and D or L forms follow the SMILES beside them. Groups on a side chain read outwards from the residue. *: point of attachment. X8 = O=C(CCc1c[nH]c2ccccc12)Oc1ccc(C[C@H](N[*:1])C(=O)[*:2])cc1[N+](=O)[O-]; X11 = COC(=O)[C@H](Cc1c[nH]cn1)NC(=O)[C@@H](C)C[C@@H](C(=O)[*:2])N(C)[*:1]; X10 = CC[C@H](C)[C@H](NC(=O)[C@@H](C)C[C@@H](C(=O)[*:2])N(C)[*:1])C(=O)OC; X13 = C[C@@H](C[C@@H](C(=O)[*:2])N(C)[*:1])C(=O)NCc1ccc(C(F)(F)F)cc1; Trp(1-(1,1-Me2-allyl)) = C=CC(C)(C)n1cc(C[C@H](N)C(=O)O)c2ccccc21; X5 = O=C(Oc1ccc(C[C@H](N[*:1])C(=O)[*:2])cc1[N+](=O)[O-])c1cnccn1; NMeGlu(4S-Me) = C[C@@H](C[C@@H](C(=O)[*:2])N(C)[*:1])C(=O)[*:3]; X6 = C[C@@H](C[C@@H](C(=O)[*:2])N(C)[*:1])C(=O)NNC(=O)c1ccncc1; X1 = C[C@@H](C[C@@H](C(=O)[*:2])N(C)[*:1])C(=O)NCc1ccc(F)cc1; X12 = C[C@@H](C[C@@H](C(=O)[*:2])N(C)[*:1])C(=O)NCc1ccccc1; Tyr(3-NO2) = N[C@@H](Cc1ccc(O)c([N+](=O)[O-])c1)C(=O)O; X7 = O=C1O[C@@H](CN*)CN1c1ccc(N2CCOCC2)c(F)c1; Gly(E-crotyl) = C/C=C/C[C@H](N)C(=O)O; NMeL = CN[C@@H](CC(C)C)C(=O)O

Columns and labels:
MCF-7 = test: cells; assay type: cell-based; details: Homo sapiens, MCF7; breast adenocarcinoma cell line
M. tuberculosis H37Rv = test: Antitubercular activity assay, broth dilution, auto-luminescent strain; assay type: cell-based, Mycobacterium tuberculosis
HCT116 = test: cells; assay type: cell-based; details: Homo sapiens, HCT-116; colon cancer cell line
HeLa = test: cells; assay type: cell-based; details: Homo sapiens, cervical carcinoma cell line
A549 = test: Cytotoxicity assay (CCK-8); assay type: cell-based; details: Homo sapiens, lung cancer cell line
Huvec-12 = test: Cytotoxicity assay (CCK-8); assay type: cell-based; details: normal human umbilical vein endothelial cell line
HepG2 = test: cells; assay type: cell-based; details: Homo sapiens, hepatocellular carcinoma cell line
L02 = test: cells; assay type: cell-based; details: normal human hepatic cell line
[1] = Day 3rd, read-out: MICs against H37Rv, Day 3rd
[2] = Day 14th, read-out: MICs against H37Rv, Day 14th
[3] = Mycobacterium tuberculosis, H37RV, Day 3rd, read-out: MICs against H37Rv, Day 3rd
[4] = Mycobacterium tuberculosis, H37RV, Day 7th, read-out: MICs against H37Rv, Day 7th
[5] = Mycobacterium tuberculosis, H37RV, Day 14th, read-out: MICs against H37Rv, Day 14th
[6] = Mycobacterium tuberculosis, H37RV, read-out: MICs against H37Rv, Day 3rd
[7] = Mycobacterium tuberculosis, H37RV, read-out: MICs against H37Rv, Day 7th
[8] = Mycobacterium tuberculosis, H37RV, read-out: MICs against H37Rv, Day 14th

Structure (SMILES)	IC50 (MCF-7)	increase of anti-TB activity compared with ilamycin F (M. tuberculosis H37Rv; Day 3rd)	MIC (M. tuberculosis H37Rv; [1])	more potent MIC value than that of 9 and 11 (M. tuberculosis H37Rv; Day 14th)	MIC (M. tuberculosis H37Rv; [2])	MIC (M. tuberculosis H37Rv; [3])	MIC (M. tuberculosis H37Rv; [4])	MIC (M. tuberculosis H37Rv; [5])	IC50 (HCT116)	IC50 (HeLa)	IC50 (A549)	IC50 (Huvec-12)	IC50 (HepG2)	IC50 (L02)	MIC (M. tuberculosis H37Rv; [6])	MIC (M. tuberculosis H37Rv; [7])	MIC (M. tuberculosis H37Rv; [8])
C=CC(C)(C)n1cc(C[C@@H]2NC(=O)[C@H](C/C=C/C)NC(=O)[C@H](CC(C)C)NC(=O)[C@H](C[C@H](C)C(=O)NCc3ccc(F)cc3)N(C)C(=O)[C@H](C)NC(=O)[C@H](Cc3ccc(O)c([N+](=O)[O-])c3)NC(=O)[C@H](CC(C)C)N(C)C2=O)c2ccccc21 [Compound 10, ilamycin NJL10] (cyclo(A[X1]L[Gly(E-crotyl)][Trp(1-(1,1-Me2-allyl))][NMeL][Tyr(3-NO2)]))	> 50 µM	9–19 fold	1.7 µM (≈ 1.95 µg/mL)	2 fold	1.7 µM (≈ 1.95 µg/mL)	1.6 to 3.5 µM (≈ 1.84 to 4.02 µg/mL)	1.7 µM (≈ 1.95 µg/mL)	1.6 to 1.7 µM (≈ 1.84 to 1.95 µg/mL)	> 50 µM	> 50 µM	> 50 µM	> 50 µM	> 50 µM	> 50 µM			
C=CC(C)(C)n1cc(C[C@@H]2NC(=O)[C@H](C/C=C/C)NC(=O)[C@H](CC(C)C)NC(=O)[C@H](C[C@H](C)C(=O)N[C@@H](Cc3c[nH]c4ccccc34)C(=O)OC)N(C)C(=O)[C@H](C)NC(=O)[C@H](Cc3ccc(O)c([N+](=O)[O-])c3)NC(=O)[C@H](CC(C)C)N(C)C2=O)c2ccccc21 [Compound 6, ilamycin NJL6] (cyclo(A[NMeGlu(4S-Me)]([Trp-OMe])L[Gly(E-crotyl)][Trp(1-(1,1-Me2-allyl))][NMeL][Tyr(3-NO2)]))	> 50 µM		1.7 µM (≈ 2.11 µg/mL)		1.7 µM (≈ 2.11 µg/mL)	1.6 to 3.5 µM (≈ 1.99 to 4.35 µg/mL)	1.7 µM (≈ 2.11 µg/mL)	1.6 to 1.7 µM (≈ 1.99 to 2.11 µg/mL)	> 50 µM	> 50 µM	> 50 µM	> 50 µM	> 50 µM	> 50 µM			
C=CC(C)(C)n1cc(C[C@@H]2NC(=O)[C@H](C/C=C/C)NC(=O)[C@H](CC(C)C)NC(=O)[C@H](C[C@H](C)C(=O)NNC(=O)c3ccncc3)N(C)C(=O)[C@H](C)NC(=O)[C@H](Cc3ccc(O)c([N+](=O)[O-])c3)NC(=O)[C@H](CC(C)C)N(C)C2=O)c2ccccc21 [Compound 13, ilamycin NJL13] (cyclo(A[X6]L[Gly(E-crotyl)][Trp(1-(1,1-Me2-allyl))][NMeL][Tyr(3-NO2)]))	> 50 µM								> 50 µM	> 50 µM	> 50 µM	> 50 µM	> 50 µM	> 50 µM	27.6 µM (≈ 32.1 µg/mL)	27.6 µM (≈ 32.1 µg/mL)	27.6 µM (≈ 32.1 µg/mL)
C=CC(C)(C)n1cc(C[C@@H]2NC(=O)[C@H](C/C=C/C)NC(=O)[C@H](CC(C)C)NC(=O)[C@H](C[C@H](C)C(=O)N[C@@H](Cc3c[nH]cn3)C(=O)OC)N(C)C(=O)[C@H](C)NC(=O)[C@H](Cc3ccc(O)c([N+](=O)[O-])c3)NC(=O)[C@H](CC(C)C)N(C)C2=O)c2ccccc21 [Compound 5, ilamycin NJL5] (cyclo(A[X11]L[Gly(E-crotyl)][Trp(1-(1,1-Me2-allyl))][NMeL][Tyr(3-NO2)]))	> 50 µM					26.8 µM (≈ 32 µg/mL)	26.8 µM (≈ 32 µg/mL)	26.8 µM (≈ 32 µg/mL)	> 50 µM	> 50 µM	> 50 µM	> 50 µM	> 50 µM	> 50 µM			
COc1cccc2c1C(=O)c1c(O)c3c(c(O)c1C2=O)C[C@@](O)(C(=O)CO)C[C@@H]3O[C@H]1C[C@H](N)[C@H](O)[C@H](C)O1 [doxorubicin, reference compound]	4 µM								4 µM	0.7 µM	1.5 µM	12 µM	0.6 µM	7.7 µM			
C=CC(C)(C)n1cc(C[C@@H]2NC(=O)[C@H](C/C=C/C)NC(=O)[C@H](CC(C)C)NC(=O)[C@H](C[C@H](C)C(=O)O)N(C)C(=O)[C@H](C)NC(=O)[C@H](Cc3ccc(OC(=O)CCc4c[nH]c5ccccc45)c([N+](=O)[O-])c3)NC(=O)[C@H](CC(C)C)N(C)C2=O)c2ccccc21 [Compound 16, ilamycin NJL16] (cyclo(A[NMeGlu(4S-Me)]L[Gly(E-crotyl)][Trp(1-(1,1-Me2-allyl))][NMeL][X8]))	> 50 µM					26.4 µM (≈ 32 µg/mL)	26.4 µM (≈ 32 µg/mL)	26.4 µM (≈ 32 µg/mL)	> 50 µM	> 50 µM	> 50 µM	> 50 µM	> 50 µM	> 50 µM			
C=CC(C)(C)n1cc(C[C@@H]2NC(=O)[C@H](C/C=C/C)NC(=O)[C@H](CC(C)C)NC(=O)[C@H](C[C@H](C)C(=O)O)N(C)C(=O)[C@H](C)NC(=O)[C@H](Cc3ccc(OC(=O)c4cnccn4)c([N+](=O)[O-])c3)NC(=O)[C@H](CC(C)C)N(C)C2=O)c2ccccc21 [Compound 15, ilamycin NJL15] (cyclo(A[NMeGlu(4S-Me)]L[Gly(E-crotyl)][Trp(1-(1,1-Me2-allyl))][NMeL][X5]))	> 50 µM					27.9 µM (≈ 32 µg/mL)	27.9 µM (≈ 32 µg/mL)	27.9 µM (≈ 32 µg/mL)	> 50 µM	> 50 µM	> 50 µM	> 50 µM	> 50 µM	> 50 µM			
C=CC(C)(C)n1cc(C[C@@H]2NC(=O)[C@H](C/C=C/C)NC(=O)[C@H](CC(C)C)NC(=O)[C@H](C[C@H](C)C(=O)N[C@H](C(=O)OC)[C@@H](C)CC)N(C)C(=O)[C@H](C)NC(=O)[C@H](Cc3ccc(O)c([N+](=O)[O-])c3)NC(=O)[C@H](CC(C)C)N(C)C2=O)c2ccccc21 [Compound 3, ilamycin NJL3] (cyclo(A[X10]L[Gly(E-crotyl)][Trp(1-(1,1-Me2-allyl))][NMeL][Tyr(3-NO2)]))	> 50 µM					6.8 µM (≈ 7.95 µg/mL)	6.8 µM (≈ 7.95 µg/mL)	6.8 µM (≈ 7.95 µg/mL)	> 50 µM	14.5 µM	> 50 µM	> 50 µM	> 50 µM	12 µM			
C=CC(C)(C)n1cc(C[C@@H]2NC(=O)[C@H](C/C=C/C)NC(=O)[C@H](CC(C)C)NC(=O)[C@H](C[C@H](C)C(=O)NCc3ccc(C(F)(F)F)cc3)N(C)C(=O)[C@H](C)NC(=O)[C@H](Cc3ccc(O)c([N+](=O)[O-])c3)NC(=O)[C@H](CC(C)C)N(C)C2=O)c2ccccc21 [Compound 12, ilamycin NJL12] (cyclo(A[X13]L[Gly(E-crotyl)][Trp(1-(1,1-Me2-allyl))][NMeL][Tyr(3-NO2)]))	> 50 µM								> 50 µM	> 50 µM	> 50 µM	> 50 µM	> 50 µM	> 50 µM	> 100 µM	> 100 µM	> 100 µM
C=CC(C)(C)n1cc(C[C@@H]2NC(=O)[C@H](C/C=C/C)NC(=O)[C@H](CC(C)C)NC(=O)[C@H](C[C@H](C)C(=O)NC[C@H]3CN(c4ccc(N5CCOCC5)c(F)c4)C(=O)O3)N(C)C(=O)[C@H](C)NC(=O)[C@H](Cc3ccc(O)c([N+](=O)[O-])c3)NC(=O)[C@H](CC(C)C)N(C)C2=O)c2ccccc21 [Compound 14, ilamycin NJL14] (cyclo(A[NMeGlu(4S-Me)](X7)L[Gly(E-crotyl)][Trp(1-(1,1-Me2-allyl))][NMeL][Tyr(3-NO2)]))	> 50 µM								> 50 µM	> 50 µM	> 50 µM	> 50 µM	> 50 µM	> 50 µM	48.5 µM (≈ 64 µg/mL)	48.5 µM (≈ 64 µg/mL)	48.5 µM (≈ 64 µg/mL)
C=CC(C)(C)n1cc(C[C@@H]2NC(=O)[C@H](C/C=C/C)NC(=O)[C@H](CC(C)C)NC(=O)[C@H](C[C@H](C)C(=O)NCc3ccccc3)N(C)C(=O)[C@H](C)NC(=O)[C@H](Cc3ccc(O)c([N+](=O)[O-])c3)NC(=O)[C@H](CC(C)C)N(C)C2=O)c2ccccc21 [Compound 9, ilamycin NJL9] (cyclo(A[X12]L[Gly(E-crotyl)][Trp(1-(1,1-Me2-allyl))][NMeL][Tyr(3-NO2)]))	> 50 µM					3.5 µM (≈ 3.96 µg/mL)	3.5 µM (≈ 3.96 µg/mL)	3.5 µM (≈ 3.96 µg/mL)	> 50 µM	> 50 µM	> 50 µM	> 50 µM	> 50 µM	> 50 µM			
